Test results: US20120270929A1, “MODULATION OF TTC39 EXPRESSION TO INCREASE HDL” (ISIS Pharmaceuticals, Inc., priority 2009, published 2012)
Oligonucleotides are written 5' to 3', each unit as a sugar letter and its base; * is a phosphorothioate linkage, no mark a phosphodiester; rarer units and linkages stand in square brackets, end groups in braces. Plain capitals give the bases only. e = 2'-O-(2-methoxyethyl) (MOE); [5mC] = 5-methylcytosine; d = 2'-deoxy (DNA)

What was measured:
ABCA1 mRNA = ABCA1 mRNA levels in C57BL/6 mice after TTC39B inhibition; format: in vivo, mouse; settings: 50 mg/kg/week, 6 weeks
Description: (§1) Four groups of five mice each were injected twice a week with 25 mg/kg (totaling 50 mg/kg/week) of ISIS 447114, ISIS 447118, ISIS 447143, or ISIS 447144 for 6 weeks. A control group of five mice was injected with phosphate buffered saline (PBS) twice a week for 6 weeks. Plasma samples were obtained before the start of treatment, at week 3 and at week 6. At the end of the treatment period, mice were fasted for 4 hours before being euthanized. Plasma and tissue samples were obtained for further analysis.
The effect of inhibition of TTC39B in mice on these proteins of reverse cholesterol transport was studied. RNA levels of ABCA1 were measured using murine primer probe set RTS1204 (forward sequence […], designated herein as SEQ ID NO: 97; reverse sequence […], designated herein as SEQ ID NO: 98; and probe sequence […], designated herein as SEQ ID NO: 99). RNA levels of apoA1 were measured using murine primer probe set RTS14737 (forward sequence […], designated herein as SEQ ID NO: 100; reverse sequence […], designated herein as SEQ ID NO: 101; and probe sequence […], designated herein as SEQ ID NO: 102). RNA levels of SRB1 were measured using murine primer probe set mSRB-1 (forward sequence […], designated herein as SEQ ID NO: 103; reverse sequence ATGCGACTTGTCAGGCTGG, designated herein as SEQ ID NO: 104; and probe sequence […], designated herein as SEQ ID NO: 105).

[1] = Body and organ weights in C57BL/6 mice; format: in vivo, mouse; settings: for Kidney weight after treatment / Liver weight after treatment / Spleen weight after treatment: 50 mg/kg/week, 6 weeks
Description: as §1
Body weights of all the mice were measured weekly till the end of the treatment period. Organ weights were taken at the end of the treatment period when the mice were euthanized.

PCSK9 mRNA = PCSK9 mRNA levels in C57BL/6 mice; format: in vivo, mouse; settings: 50 mg/kg/week, 6 weeks, compared to PBS control
Description: as §1
(§2) The effect of inhibition of TTC39B in mice on cholesterol homeostasis was studied. PCSK9 mRNA levels were measured using the murine primer probe set mPCSK9 (forward sequence ACCGACTTCAACAGCGTGC, designated herein as SEQ ID NO: 106; reverse sequence GGCTGTCACACTTGCTCGC, designated herein as SEQ ID NO: 107, probe sequence AGGATGGGACACGCTTCCACAGACAX, wherein X is a fluorophore, designated herein as SEQ ID NO: 108). LDLR mRNA levels were measured using the murine primer probe set mLDLR (forward sequence GACCGCAGCGAGTACACCA, designated herein as SEQ ID NO: 109; reverse sequence TCACCTCCGTGTCGAGAGC, designated herein as SEQ ID NO: 110, probe sequence […], designated herein as SEQ ID NO: 111). The results are presented as percentage inhibition compared to the PBS control.

[2] = Plasma cholesterol and triglycerides in C57BL/6 mice (Olympus AU400e); format: in vivo, mouse; settings: for total cholesterol % increase over baseline: 6 weeks, baseline average of 72 mg/dL
Description: as §1
To investigate the effect of inhibition of TTC39B on triglycerides and cholesterol levels in the plasma, samples were collected on weeks 0, 3, and 6, and total plasma cholesterol, LDL cholesterol, HDL cholesterol, and triglycerides were analyzed on an Olympus AU400e Analyzer.

murine TTC39B mRNA = assay: Dose-dependent antisense inhibition of murine TTC39B in mouse primary hepatocytes (Example 2); format: cell-based; settings: cytofectin, ~16 h
How it was run: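 Mouse primary hepatocytes (10,000/well) transfected via cytofectin with 25, 50, 100 or 200 nM antisense oligonucleotide for about 16 h. TTC39B mRNA quantified by real-time PCR, normalized to RIBOGREEN total RNA, as % inhibition versus untreated cells.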

[3] = Liver function: plasma transaminases (ALT, AST) in C57BL/6 mice; format: in vivo, mouse
Description: as §1
To evaluate the impact of ISIS oligonucleotides on the hepatic function of the mice described above, plasma concentrations of transaminases were measured using an automated clinical chemistry analyzer (Olympus Clinical Analyzer). Measurements of alanine transaminase (ALT) and aspartate transaminase (AST) are expressed in IU/L. The results are presented in Tables 19 and 20 and indicate that the oligonucleotides were well tolerated.

LDLR mRNA = LDLR mRNA levels in C57BL/6 mice; format: in vivo, mouse; settings: 50 mg/kg/week, 6 weeks, compared to PBS control
Description: as §1, §2

[4] = Week 0 (before treatment), 50 mg/kg/week

Row | Sequence | abcA1 mRNA levels (effect of TTC39B inhibition) (ABCA1 mRNA) | Kidney weight after treatment [1] [g] | Liver weight after treatment [1] [g] | Spleen weight after treatment [1] [g] | body weight ([1]; Week 3, 50 mg/kg/week) [g] | body weight ([1]; Week 6, 50 mg/kg/week) [g] | body weight ([1]; week 1, 50 mg/kg/week) [g] | body weight ([1]; week 2, 50 mg/kg/week) [g] | body weight ([1]; week 4, 50 mg/kg/week) [g] | body weight ([1]; week 5, 50 mg/kg/week) [g] | Percent inhibition PCSK9 mRNA levels (PCSK9 mRNA) [%] | total cholesterol % increase over baseline ([2]; 50 mg/kg/week) | HDL cholesterol levels [2, 4] [mg/dL] | LDL cholesterol levels [2, 4] [mg/dL] | total cholesterol levels [2, 4] [mg/dL] | triglyceride levels [2, 4] [mg/dL] | HDL cholesterol levels ([2]; Week 3, 50 mg/kg/week) [mg/dL] | HDL cholesterol levels (% change over baseline) ([2]; Week 3, 50 mg/kg/week) | LDL cholesterol levels ([2]; Week 3, 50 mg/kg/week) [mg/dL] | total cholesterol levels ([2]; Week 3, 50 mg/kg/week) [mg/dL] | further results
1 | CGGATGATTCTTGCTGGTAA (antisense e[5mC]*eG*eG*eA*eT*dG*dA*dT*dT*d[5mC]*dT*dT*dG*d[5mC]*dT*eG*eG*eT*eA*eA) [ISIS 447114] | −18 | 0.33 | 1.3 | 0.09 | 26 | 27 | 25 | 25 | 26 | 27 | 24 | +61% | 42 | 11 | 66 | 107 | 47 | +14% | 12 | 70 | triglyceride levels ([2]; Week 3, 50 mg/kg/week): 66 mg/dL; HDL cholesterol levels ([2]; Week 6, 50 mg/kg/week): 96 mg/dL; HDL cholesterol levels (% change over baseline) ([2]; Week 6, 50 mg/kg/week): +130%; LDL cholesterol levels ([2]; Week 6, 50 mg/kg/week): 19 mg/dL; total cholesterol levels ([2]; Week 6, 50 mg/kg/week): 114 mg/dL; triglyceride levels ([2]; Week 6, 50 mg/kg/week): 113 mg/dL; percent inhibition of TTC39B mRNA (murine TTC39B mRNA; 25 nM): 42%; percent inhibition of TTC39B mRNA (murine TTC39B mRNA; 50 nM): 70%; percent inhibition of TTC39B mRNA (murine TTC39B mRNA; 100 nM): 85%; percent inhibition of TTC39B mRNA (murine TTC39B mRNA; 200 nM): 92%; ALT levels [3, 4]: 46 IU/L; AST levels [3, 4]: 83 IU/L; ALT levels ([3]; Week 3, 50 mg/kg/week): 21 IU/L; AST levels ([3]; Week 3, 50 mg/kg/week): 29 IU/L; ALT levels ([3]; Week 6, 50 mg/kg/week): 40 IU/L; AST levels ([3]; Week 6, 50 mg/kg/week): 93 IU/L; Percent inhibition LDLR mRNA levels (LDLR mRNA): 2%
2 | GCAGCTCGATTCGGGCATGA (antisense eG*e[5mC]*eA*eG*e[5mC]*dT*d[5mC]*dG*dA*dT*dT*d[5mC]*dG*dG*dG*e[5mC]*eA*eT*eG*eA) [ISIS 447118] | −2 | 0.32 | 1.4 | 0.08 | 26 | 27 | 24 | 25 | 26 | 27 | 45 | +37% | 45 | 14 | 71 | 82 | 50 | +15% | 13 | 77 | triglyceride levels ([2]; Week 3, 50 mg/kg/week): 69 mg/dL; HDL cholesterol levels ([2]; Week 6, 50 mg/kg/week): 100 mg/dL; HDL cholesterol levels (% change over baseline) ([2]; Week 6, 50 mg/kg/week): +89%; LDL cholesterol levels ([2]; Week 6, 50 mg/kg/week): 15 mg/dL; total cholesterol levels ([2]; Week 6, 50 mg/kg/week): 97 mg/dL; triglyceride levels ([2]; Week 6, 50 mg/kg/week): 88 mg/dL; percent inhibition of TTC39B mRNA (murine TTC39B mRNA; 25 nM): 49%; percent inhibition of TTC39B mRNA (murine TTC39B mRNA; 50 nM): 65%; percent inhibition of TTC39B mRNA (murine TTC39B mRNA; 100 nM): 74%; percent inhibition of TTC39B mRNA (murine TTC39B mRNA; 200 nM): 82%; ALT levels [3, 4]: 29 IU/L; AST levels [3, 4]: 88 IU/L; ALT levels ([3]; Week 3, 50 mg/kg/week): 39 IU/L; AST levels ([3]; Week 3, 50 mg/kg/week): 39 IU/L; ALT levels ([3]; Week 6, 50 mg/kg/week): 50 IU/L; AST levels ([3]; Week 6, 50 mg/kg/week): 127 IU/L; Percent inhibition LDLR mRNA levels (LDLR mRNA): 6%
3 | GCCACCAGTGCCTGCTGAGC (antisense eG*e[5mC]*e[5mC]*eA*e[5mC]*d[5mC]*dA*dG*dT*dG*d[5mC]*d[5mC]*dT*dG*d[5mC]*eT*eG*eA*eG*e[5mC]) [ISIS 447143] | −17 | 0.34 | 1.5 | 0.08 | 27 | 28 | 26 | 26 | 27 | 28 | 65 | +46% | 44 | 13 | 70 | 95 | 56 | +28% | 14 | 81 | triglyceride levels ([2]; Week 3, 50 mg/kg/week): 92 mg/dL; HDL cholesterol levels ([2]; Week 6, 50 mg/kg/week): 91 mg/dL; HDL cholesterol levels (% change over baseline) ([2]; Week 6, 50 mg/kg/week): +104%; LDL cholesterol levels ([2]; Week 6, 50 mg/kg/week): 17 mg/dL; total cholesterol levels ([2]; Week 6, 50 mg/kg/week): 104 mg/dL; triglyceride levels ([2]; Week 6, 50 mg/kg/week): 95 mg/dL; percent inhibition of TTC39B mRNA (murine TTC39B mRNA; 25 nM): 36%; percent inhibition of TTC39B mRNA (murine TTC39B mRNA; 50 nM): 71%; percent inhibition of TTC39B mRNA (murine TTC39B mRNA; 100 nM): 79%; percent inhibition of TTC39B mRNA (murine TTC39B mRNA; 200 nM): 91%; ALT levels [3, 4]: 32 IU/L; AST levels [3, 4]: 50 IU/L; ALT levels ([3]; Week 3, 50 mg/kg/week): 31 IU/L; AST levels ([3]; Week 3, 50 mg/kg/week): 31 IU/L; ALT levels ([3]; Week 6, 50 mg/kg/week): 45 IU/L; AST levels ([3]; Week 6, 50 mg/kg/week): 73 IU/L; Percent inhibition LDLR mRNA levels (LDLR mRNA): 34%
